Data taken from patent US20140242609A1, “Diagnosis and treatment of kidney stones, methods and compositions therefor” (Washington University, priority 2013, published 2014).

How the values were obtained:
[1] = tested on: CLDN14 mRNA; experiment: CLDN14 mRNA levels in primary cultures / freshly isolated mouse TALH cells (real-time PCR); type: cell-based; conditions: versus vehicle
Procedure: (§1) An immunomagnetic separation method was used to isolate the TAL cells from the mouse kidney (Hou et al., 2009). Antibodies against the TAL cell specific surface antigen, Tamm-Horsfall protein (THP), were coated onto the paramagnetic polystyrene beads (Dynabeads M-280; Dynal), allowing immunoprecipitation of the TAL cells from collagenase digested mouse kidneys. The isolated cells were plated in DMEM medium supplemented with 10% FBS, penicillin/streptomycin, and 1 mM sodium pyruvate for 16 hours, followed by immediate transfection with NFAT or antagomirs.
Total RNA including microRNA was extracted using Trizol (Invitrogen). Cellular mRNA was reverse transcribed using the Superscript-III kit (Invitrogen), followed by real-time PCR amplification using SYBR Green PCR Master Mix (Bio-Rad) and Eppendorf Realplex2S system. The design of claudin-14 primers was described above. The design of pri-miRNA primers was according to Ma et al., (2010). Results were expressed as 2^−ΔCt values with ΔCT=Ctgene−Ctβ-actin.
as §1, with “TALH” for “TAL”, “kidney. (Gong Y,” for “kidney (Hou”, “al. 2012 and Gong Y, et al. 2013)” for “al., 2009).”, “protein,” for “protein (THP),”, “treatment.” for “transfection with NFAT or antagomirs.”
Total RNA including microRNA was extracted using Trizol (Invitrogen). Cellular mRNA was reverse transcribed using the Superscript-III kit (Invitrogen), followed by real-time PCR amplification using SYBR Green PCR Master Mix (Bio-Rad) and Eppendorf Realplex2S system. […] Results were expressed as 2^−ΔCt values with ΔCT=Ctgene−Ctβ-actin. […]
Total RNA including microRNA was extracted using Trizol (Invitrogen). […] Results were expressed as 2^−ΔCt values with ΔCT=Ctgene−Ctβ-actin. […]

[2] = tested on: CLDN16, CLDN19, TRPV5, TRPM6, NKCC2, ROMK, TSC, Klotho and VDR; experiment: gene expression of renal ion transporters in SAHA treated mouse kidneys (real-time PCR); type: in vivo; conditions: SAHA versus vehicle
Description: FIG. 25 illustrates gene expression analyses of renal ion transporters in SAHA versus vehicle treated mouse kidneys by real-time PCR. Values are shown as fold ratios relative to the vehicle level (as mean±SEM; n=5).
Total RNA including microRNA was extracted using Trizol (Invitrogen). Cellular mRNA was reverse transcribed using the Superscript-III kit (Invitrogen), followed by real-time PCR amplification using SYBR Green PCR Master Mix (Bio-Rad) and Eppendorf Realplex2S system. The design of claudin-14 primers was described before by Gong et al., 2012. The design of pri-miRNA primers and ChIP primers was according to Gong et al., 2013. Results were expressed as 2^−ΔCt values with ΔCT=Ctgene−Ctβ-actin.

[3] = 24 hr urinalysis in metabolic cages, plasma and urine electrolytes; type: in vivo, mouse
Procedure: Age (9-10 weeks old) and sex (male) matched wild-type and CLDN14 KO mice were housed individually in metabolic cages (Harvard Apparatus) with free access to water and food for 24 hr. Urine was collected under mineral oil. The plasma and urine Ca^++ and Mg^2+ levels were determined with atomic flame absorption spectrophotometer (PerkinElmer). The plasma (P) and urine (U) electrolyte levels were determined with the Roche Cobas clinical analyzer (Roche Diagnostics). […] The fractional excretion of electrolytes was calculated using the following equation: FEion=V×Uion/(GFR×Pion), where GFR was calculated according to the clearance rate of creatinine (GFR=V×Ucreatinine/Pcreatinine).
Mice were housed individually in metabolic cages (Harvard Apparatus) with free access to water and food for 24 hr. Urine was collected under mineral oil. The plasma and urine Ca^++ and Mg^++ levels were determined with atomic flame absorption spectrophotometer (PerkinElmer). The creatinine levels were measured with an enzymatic method that was independent of plasma chromogens.

[4] = WT pre-treated with furosemide 40 mg/kg BW−1 per day, Veh + Furo = furosemide alone

O=C(CCCCCCC(=O)Nc1ccccc1)NO [SAHA, Suberanilohydroxamic acid]
CLDN14 mRNA levels, downregulation ([1]; 0.1 μM): 38%
CLDN14 mRNA levels, downregulation ([1]; 0.33 μM): 54%
expression levels of other major Ca++/Mg++ transporters from the kidney [2]: nor did the inventors find any significant change
ECa ([3]; CLDN14 KO, same SAHA regimen): 1.20 ± 0.24 ug/24 hr · g
EMg ([3]; CLDN14 KO, same SAHA regimen): 6.50 ± 0.55 ug/24 hr · g
FECa ([3]; CLDN14 KO, same SAHA regimen): 0.45 ± 0.07%
FEMg ([3]; CLDN14 KO, same SAHA regimen): 9.90 ± 0.83%
PCa ([3]; CLDN14 KO, same SAHA regimen): 11.13 ± 0.34 mg/dL
PMg ([3]; CLDN14 KO, same SAHA regimen): 2.76 ± 0.05 mg/dL
ECa [3, 4]: 3.37 ± 0.75 ug/24 hr · g
EMg [3, 4]: 8.34 ± 2.15 ug/24 hr · g
FECa [3, 4]: 1.97 ± 0.38%
FEMg [3, 4]: 22.50 ± 6.40%
PCa [3, 4]: 9.95 ± 0.41 mg/dL
PMg [3, 4]: 2.20 ± 0.06 mg/dL
ECa ([3]; WT, SAHA 10 mg/kg BW−1 per day): 0.72 ± 0.26^□ ug/24 hr · g
EMg ([3]; WT, SAHA 10 mg/kg BW−1 per day): 3.16 ± 0.80^□□ ug/24 hr · g
FECa ([3]; WT, SAHA 10 mg/kg BW−1 per day): 0.27 ± 0.08^□□ %
FEMg ([3]; WT, SAHA 10 mg/kg BW−1 per day): 6.06 ± 1.71^□□ %
PCa ([3]; WT, SAHA 10 mg/kg BW−1 per day): 11.38 ± 0.44^□ mg/dL
PMg ([3]; WT, SAHA 10 mg/kg BW−1 per day): 2.71 ± 0.12^□ mg/dL
effect of chronic treatment on calcemia ([3]; chronic SAHA treatment): mild hypercalcemia
